This note sets out measurements from ChEMBL document CHEMBL4270495, “Oleanane-, ursane-, and quinone methide friedelane-type triterpenoid derivatives: Recent advances in cancer treatment” (Eur J Med Chem, 2017).

The term IC50 denotes the concentration that inhibits the measured activity by half.

The subject of experiment [1] is MCF7. Kind of experiment: Cytotoxicity in human MCF7 cells assessed as reduction in cell viability incubated for 48 hrs by SRB assay. The class given is functional, cell-based. The note with it: MCF7, 48 h.
Experiment [2] deals with PC-3. Kind of experiment: Cytotoxicity in human PC3 cells assessed as reduction in cell viability incubated for 48 hrs by SRB assay. The class given is functional, cell-based. The note with it: PC-3, 48 h.
Experiment [3] deals with HL-60. Put plainly: Cytotoxicity in human HL60 cells assessed as reduction in cell viability incubated for 24 hrs by MTT assay. As to conditions: HL-60, 24 h. The class given is functional, cell-based. In general terms: Tetrazolium dyes change colour on reduction, which living cells bring about.
Experiment [4] deals with A549. Put plainly: Cytotoxicity in human A549 cells assessed as reduction in cell viability incubated for 48 hrs by SRB assay. The class given is functional, cell-based. The note with it: A549, 48 h. Background: Sulforhodamine B stains cellular protein and so reports cell mass.
In experiment [5] the test system is MDA-MB-231. Put plainly: Cytotoxicity in human MDA-MB-231 cells assessed as reduction in cell viability incubated for 24 hrs by MTT assay. The class given is functional, cell-based. As to conditions: MDA-MB-231, 24 h.
The subject of experiment [6] is 4T1. Put plainly: Cytotoxicity in mouse 4T1 cells assessed as reduction in cell viability incubated for 24 hrs by MTT assay. The note with it: 4T1, 24 h. The class given is functional, cell-based.
In experiment [7] the test system is HMEC. Put plainly: Cytotoxicity in human HMEC cells assessed as reduction in cell viability incubated for 48 hrs by SRB assay. The class given is cell-based.
Experiment [8] deals with MCF7. Kind of experiment: Cytotoxicity in human MCF7 cells assessed as reduction in cell viability incubated for 24 hrs by MTT assay. The class given is functional, cell-based. The note with it: MCF7, 24 h.
Experiment [9] relates to PC-3. Kind of experiment: Cytotoxicity in human PC3 cells assessed as reduction in cell viability incubated for 48 hrs by XTT assay. The class given is functional, cell-based. The note with it: PC-3, 48 h.
Experiment [10] has as its system Bel-7402. Kind of experiment: Cytotoxicity in human Bel7402 cells assessed as reduction in cell viability incubated for 72 hrs by MTT assay. The class given is functional, cell-based. The note with it: Bel-7402, 72 h.
For experiment [11], the system named is H4. Put plainly: Cytotoxicity in human H4 cells assessed as reduction in cell viability incubated for 72 hrs by MTT assay. The class given is functional, cell-based. The note with it: H4, 72 h.
Experiment [12] relates to COLO 205. Kind of experiment: Cytotoxicity in human COLO205 cells assessed as reduction in cell viability incubated for 72 hrs by MTT assay. The note with it: COLO 205, 72 h. The class given is functional, cell-based.
In experiment [13] the test system is Daudi. Put plainly: Cytotoxicity in human Daudi cells assessed as reduction in cell viability. The class given is functional, cell-based.
Experiment [14] relates to T-ALL. Put plainly: Cytotoxicity in human T-ALL cells assessed as reduction in cell viability. The class given is functional, cell-based.
A short description of experiment [15]: Cytotoxicity in human BCP-ALL cells assessed as reduction in cell viability. The class given is functional, cell-based.
Experiment [16] concerns NCI-H1299. Kind of experiment: Cytotoxicity in human NCI-H1299 cells assessed as reduction in cell viability. The class given is functional, cell-based.
In experiment [17] the test system is HL-60. Kind of experiment: Cytotoxicity in human HL60 cells assessed as reduction in cell viability. The class given is functional, cell-based.

`CCC(=O)O[C@H]1CC[C@@]2(C)[C@@H](CC[C@]3(C)[C@@H]2CC=C2[C@@H]4[C@@H](C)[C@H](C)CC[C@]4(C)CC[C@]23C)[C@@]1(C)C(=O)O`: the IC50 in experiment [1] was 29 µM; in [2] it was 31 µM; in [3], 14 µM; in experiment [4], 29 µM.
Consider `CC(=O)Oc1ccccc1C(=O)O[C@H]1CC[C@]2(C)[C@H]3CC=C4[C@@H]5[C@@H](C)[C@H](C)CC[C@]5(C(=O)O)CC[C@@]4(C)[C@]3(C)CC[C@H]2C1(C)C`, for which the IC50 is 63.9 µM in experiment [5], 62 µM in experiment [6], greater than 100 µM in experiment [7] and 72.2 µM in experiment [8].
With `C[C@H]1[C@H](C)CC[C@]2(C)CC[C@]3(C)C(=CC(=O)[C@@H]4[C@@]5(C)CC[C@H](OC(=O)/C=C/c6ccccc6)[C@](C)(C(=O)O)[C@@H]5CC[C@]43C)[C@H]12`, the IC50 in experiment [9] worked out at 3.6 µM.
With `CC(=O)Oc1cc2c(c(C)c1OC(C)=O)C(S(=O)(=O)O)C=C1C2(C)CC[C@@]2(C)[C@@H]3C[C@](C)(C(=O)O)CC[C@]3(C)CC[C@]12C` (single isomer, unassigned), the 50% inhibitory concentration (IC50) in [10] is 1.73 µM; in experiment [11], 1.37 µM; in experiment [12], 0.06 µM.
As for `CC1=C(O)C(=O)C=C2C1=CC=C1[C@@]2(C)CC[C@@]2(C)[C@@H]3C[C@](C)(C(=O)O)CC[C@]3(C)CC[C@]12C` [CELASTROL], the IC50 in [13], in experiment [14], in experiment [15], in experiment [16] and in [17] was less than 1 µM each time.
